Tests used:
hippocampal neurons = experiment: Morphometric analyses (total dendritic length, Sholl analysis, spine density) of cultured neurons; assay type: cell-based, C57BL/6 mice
Protocol: Hippocampal cultures and transfection. Hippocampal neurons from newborn C57BL/6 mice were cultured as known in the art. Experiments were done after a culturing period of 10 to 14 days in vitro (DIV). DNA transfection was done on DIV8 using Lipofectamine 2000 (Invitrogen, San Diego, CA). For the studies on dendrite morphology, neurons were analyzed 4-5 days after transfection.
Morphometric analyses. For 3D Sholl Analysis, total dendritic length and spine morphology were calculated using Object-Image freeware software with a specific set of macros (written by Dr. E. Ruthazer, McGill University, Quebec). Briefly, a z-Stack acquisition was imported, calibrated in Object-Image and manually traced. Total dendritic length was then computed. For Sholl analysis, the shell interval was set at 5 µm. All analyses were performed blind. In all in vitro experiments, for each condition, a minimum of 12 neurons from three independent preparations was analyzed. For the Golgi staining quantifications of 20 neurons for each condition from 4 different injected animals per viral construct were traced and analyzed.
Immunocytochemistry. […] For the morphometric analyses, fluorescence images were acquired using a confocal laser-scanning microscope TCS SP2 (Leica, Mannheim, Germany) equipped with an inverted fluorescence microscope DM IRE2 (Leica) and Leica confocal scan software. […]

VEGFD = assay type: cell-based, C57BL/6 mice; details: treatment from DIV5 to DIV10; 1 µM TTX, 10 µM MK801, 10 µM nifedipine
Protocol: RNA extraction and cDNA synthesis. Total RNA was isolated at DIV10 to DIV13 from hippocampal primary neuron cultures or isolated brain tissues with Rneasy Mini Kit (Qiagen, Hilden, Germany) including an optional Dnase I treatment at room temperature for 15 min according to manufacturer's instructions (Qiagen). 1.2 µg of extracted RNA was reverse transcribed into first strand cDNA using High Capacity cDNA Reverse Transcription kit (Applied Biosystems, Foster City, CA).
Real time quantitative PCR. Quantitative reverse transcriptase PCR (qRT-PCR) was done on an ABI7300 thermal cycler using Universal qRT-PCR master mix with TaqMan Gene Expression Assays for the indicated genes (Applied Biosystems). The following TaqMan Gene Expression Assays were used in this study: Gusb (Mm00446953_m1), cFos (Mm00487425_m1), VEGFD (Mm00438965_m1), VEGFC (Mm01202432_m1), VEGF (Mm01281449_m1), VEGFR3 (Mm01292618_m1), beta-actin (Mm00607939_s1), beta-2 microglobulin (Mm00437762_m1), CBP (Mm01342435_m1), p38 MAPK alpha (Mm00442497_m1), p38 MAPK beta (Mm00440955_m1). Expression of target genes was normalized against the expression of Gusb as endogenous control gene. Data were derived from at least 5 independent experiments.

## C[S+]([O-])c1ccc(-c2nc(-c3ccncc3)c(-c3ccc(F)cc3)[nH]2)cc1 (stereo not drawn) [SB203580]
Hippocampal neurons; neurons expressing CaMBP4 (and CaMKIVK75E), treated for 3 days with rVEGFD
  effect on the rVEGFD-induced rescue of dendrite length and complexity: severely compromised the ability of rVEGFD to rescue the impairment of dendrite length and complexity
Hippocampal neurons; neurons expressing hrGFP, CaMBP4 or CaMKIVK75E, SB203580 without rVEGFD
  Sholl analysis: no difference compared to the respective untreated controls

## C[C@]12N[C@H](Cc3ccccc31)c1ccccc12 [MK801]
VEGFD
  VEGFD expression (mRNA): significantly reduced the expression of VEGFD mRNA

Reference: patent EP2714063B1, “VEGFR2/3-ACTIVATING AGENT FOR USE IN THE TREATMENT OF COGNITIVE DYSFUNCTIONS” (priority 2011, dated 2012)
